Reference: ChEMBL document CHEMBL6083261, “Structure-guided design and photochemical synthesis of new carbamo(dithioperoxo)thioates with improved potencies to SARS-CoV-2 3CLpro” (Bioorg Med Chem, 2024)

Experiments:
[1] = molecular target: T1, Replicase polyprotein 1ab (Severe acute respiratory syndrome coronavirus 2, UniProt P0DTD1); experiment: Inhibition of SARS-CoV-2 N/C terminal 6his tagged 3CL protease extracted from Escherichia coli BL21(DE3) using CA-AVLQSGFR-Lys(Dnp)-Lys-NH2 as fluorescent substrate preincubated for 1 hr followed by substrate addition and measured after 20 mins by FRET analysis
[2] = molecular target: T1, Replicase polyprotein 1ab; experiment: Inhibition of SARS-CoV-2 PL protease
[3] = molecular target: Replicase polyprotein 1ab (Severe acute respiratory syndrome coronavirus 2) (UniProt P0DTD1); experiment: (§1) Inhibition of SARS-CoV-2 N/C terminal 6his tagged 3CL protease extracted from Escherichia coli BL21(DE3) using CA-AVLQSGFR-Lys(Dnp)-Lys-NH2 as fluorescent substrate preincubated for 1 hr followed by substrate addition and measured after 20 mins by FRET analysis relative to control; parameters: concentration or dose not given beside the values; settings: time 80.0 min
Vero C1008 = experiment: Cytotoxicity against African green monkey Vero E6 cells at 1 mM incubated for 24 hrs by CCK-8 method; assay type: toxicity, cell-based; settings: chlorocebus sabaeus, vero c1008, 24 h, 1000 µM
[4] = molecular target: T1, Replicase polyprotein 1ab; experiment: Inhibition of SARS-CoV-2 RdRp
[5] = molecular target: Replicase polyprotein 1ab (Severe acute respiratory syndrome coronavirus 2) (UniProt P0DTD1); experiment: as §1, with “10 mins” for “1 hr”, “every 10 sec for 10” for “after 20”, “mins in presence of DTT” for “mins”; parameters: concentration or dose not given beside the values; settings: time 20.0 min

Row | SMILES | IC50 [1] [µM] | IC50 [2] [nM] | inhibition [3] [%] | Activity (Vero C1008) | IC50 [4] [µM] | inhibition [5] [%]
1 | OC1CCN(C(=S)SSc2ccc(F)cc2)CC1 | 0.19 | 100 | > 95 | Toxic | 9.77 | 60
2 | OC1CCN(C(=S)SSc2ccc(C(F)(F)F)cc2)CC1 | 0.14 | 40 | > 95 | Toxic | 15.9 | 60
3 | COc1ccc(SSC(=S)N2CCC(O)CC2)cc1 | 0.23 | 150 | > 95 | Toxic | 8.52 | 60
4 | OC1CCN(C(=S)SSc2ccccc2)CC1 | 0.35 | > 100000 | > 95 | Toxic | > 100 | 60
5 | CCN(CC)C(=S)SSc1ccccc1 | 1070 | > 100000 |  |  | > 100 | 
6 | OC1CCN(C(=S)SSC(=S)N2CCC(O)CC2)CC1 | 0.92 | 580 |  | Toxic | 83.1 | 60
7 | Oc1ccc(SSC(=S)N2CCC(O)CC2)cc1 | 0.3 | 7710 | > 95 | Toxic | 97.8 | 60
8 | COC(=O)C1CCCN1C(=S)SSc1ccccc1 (stereo not given) | 0.54 | 390 |  |  | 57.6 | 
9 | O=[N+]([O-])c1ccc(SSC(=S)N2CCC(O)CC2)cc1 | 0.24 | 320 | > 95 | Toxic | 45.6 | 60
10 | OC1CCN(C(=S)SSCc2ccccc2)CC1 | 0.25 | 330 | > 95 |  | 21.4 | 60
11 | S=C(SSc1ccccc1)N1CCOCC1 | 0.66 | 1730 |  |  | > 100 | 
12 | COC(=O)CCSSC(=S)N1CCC(O)CC1 | 0.47 | > 100000 | > 95 | Toxic | > 100 | 
13 | S=C(SSC(=S)N1CCCCC1)N1CCCCC1 [BIS(PIPERIDINYLTHIOCARBONYL)DISULFIDE] | 1.48 | 70 |  |  | 10.2 | 
14 | S=C(SSc1ccccc1)N1CCCCC1 | 0.64 | 2500 |  |  | > 100 | 
15 | S=C(SSC(=S)N1CCOCC1)N1CCOCC1 | 1.22 | 390 |  |  | 53.6 | 
16 | S=C(SSc1ccccc1)N1CCCC1 | 0.4 | 220 |  |  | 12 | 
17 | S=C(SSC(=S)N1CCCC1)N1CCCC1 [BIS(PYRROLIDINYLTHIOCARBONYL)DISULFIDE] | 1.34 | 60 |  |  | 8.92 | 
